Some test systems named below: TK-10; OVCAR-3; SF-268; SNB-19; NCI-H226; HL-60; HOP-62; BT-549; SK-MEL-28; CAKI-1; RXF 393; NCI-H23; SK-OV-3; UO-31; NCI/ADR-RES; RPMI-8226; LOX IMVI; DU-145; SK-MEL-5; T47D.
Assay in all cases: inhibition of tumour cell growth, NCI panel, 48 h

Molecules are shown by their SMILES.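 Following 48 hours of exposure in 96-well plates, responses at five concentrations were used to interpolate endpoints linearly. GI50: concentration for 50% inhibition of growth.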 Activity calls are given as the source filed them. Cut-off read from the data, not from the text of the source: active = GI50 up to about 1.1 µM and inactive = higher.

Consider `C(=N/c1ccccc1C1SCCCS1)/c1ccccc1`, for which the GI50 with TK-10 was > 100 µM (inactive); in the assay on OVCAR-3 it was > 100 µM (inactive); in the assay on SF-268 it was > 100 µM (inactive); with SNB-19 it was > 100 µM (inactive); in the assay with NCI-H226, > 100 µM (inactive); with HL-60, 82.6 µM (inactive). In addition, the GI50 in the assay with HOP-62, in the assay on BT-549, in the assay on SK-MEL-28, with CAKI-1, in the assay on RXF 393 and with NCI-H23 was > 100 µM (inactive) in each case. Besides, the GI50 with SK-OV-3, with UO-31, with NCI/ADR-RES, with RPMI-8226, with LOX IMVI and in the assay with DU-145 was > 100 µM (inactive) each time. In addition, the GI50 with SK-MEL-5 was > 100 µM (inactive).

Turning to `O=C(NCC(=O)N1CCCC1C(=O)OC(=O)C1CCCN1C(=O)CNC(=O)OCc1ccccc1)OCc1ccccc1` (stereo unspecified), the GI50 in the assay on TK-10 was 17.3 µM (inactive); in the assay with OVCAR-3, 43.3 µM (inactive); in the assay on SF-268, 30.4 µM (inactive); in the assay with SNB-19, 39.4 µM (inactive); in the assay on NCI-H226 it was 26.1 µM (inactive); in the assay with HL-60, 46.9 µM (inactive). For the same compound, the GI50 is 26.2 µM (inactive) in the assay with HOP-62; 28.4 µM (inactive) in the assay with SK-MEL-28; > 100 µM (inactive) in the assay with CAKI-1; 24 µM (inactive) in the assay with RXF 393; 40.9 µM (inactive) in the assay on NCI-H23; > 100 µM (inactive) in the assay on SK-OV-3. Further, the GI50 in the assay on UO-31 was 65.6 µM (inactive); in the assay on NCI/ADR-RES, > 100 µM (inactive); in the assay on RPMI-8226, 21.7 µM (inactive); with LOX IMVI it was 17.7 µM (inactive); in the assay with T47D it was 44.9 µM (inactive); in the assay on DU-145, 52 µM (inactive). Also, the GI50 in the assay with SK-MEL-5 was 26.5 µM (inactive).

Regarding `CCC(C)(C)/C(CC(O)(C(F)(F)F)C(F)(F)F)=N\O`, the GI50 in the assay on TK-10, in the assay on OVCAR-3, with SF-268, with SNB-19, with NCI-H226 and in the assay on HL-60 was > 100 µM (inactive) throughout. Further, the GI50 with HOP-62, in the assay with SK-MEL-28, with CAKI-1, with RXF 393, in the assay on NCI-H23 and in the assay with SK-OV-3 was > 100 µM (inactive) each time. Also, the GI50 in the assay on UO-31, in the assay on NCI/ADR-RES, in the assay with RPMI-8226, in the assay with LOX IMVI, with T47D and in the assay on DU-145 was > 100 µM (inactive) each time. The GI50 in the assay with SK-MEL-5 was > 100 µM (inactive).

Take `CSc1ccc(NC(=O)CCl)cc1`: the GI50 with TK-10 was > 10 µM (inactive); in the assay on OVCAR-3, 3.75 µM (inactive); in the assay on SF-268 it was > 10 µM (inactive); with SNB-19 it was 4.86 µM (inactive); in the assay on NCI-H226, > 10 µM (inactive); in the assay with HL-60, 3.33 µM (inactive). The GI50 with HOP-62 is 3.52 µM (inactive); in the assay on SK-MEL-28 it was 5.7 µM (inactive); in the assay on CAKI-1, 2.97 µM (inactive); with RXF 393, 3.17 µM (inactive); in the assay on NCI-H23, 9.59 µM (inactive); with SK-OV-3, > 10 µM (inactive). Also, the GI50 with UO-31 was 2.23 µM (inactive); with NCI/ADR-RES, 3.24 µM (inactive); in the assay on RPMI-8226 it was 3.32 µM (inactive); in the assay with LOX IMVI, 5.15 µM (inactive); with T47D, > 10 µM (inactive); in the assay with DU-145, > 10 µM (inactive). The GI50 in the assay on SK-MEL-5 was 2.08 µM (inactive).

Consider `C=Cc1c(C)c(OC)cc2c1Oc1ccc(OC)c(C)c1CC2`, for which the GI50 with TK-10 is > 100 µM (inactive); in the assay with SF-268, > 100 µM (inactive); with SNB-19, > 100 µM (inactive); with NCI-H226, 39.9 µM (inactive); in the assay on HL-60, > 100 µM (inactive); with HOP-62 it was > 100 µM (inactive). Moreover, the GI50 in the assay with SK-MEL-28, in the assay on CAKI-1, in the assay with RXF 393, with NCI-H23, in the assay with SK-OV-3 and in the assay with UO-31 was > 100 µM (inactive) each time. Further, the GI50 in the assay on NCI/ADR-RES was 49.1 µM (inactive); with RPMI-8226 it was > 100 µM (inactive); in the assay on T47D, > 100 µM (inactive); in the assay with DU-145, > 100 µM (inactive); in the assay on SK-MEL-5 it was 53.6 µM (inactive).

Turning to `O/N=C(\C=N\O)c1ccc2c(c1)Sc1ccccc1O2`, the GI50 was 31.4 µM (inactive) with TK-10; 17.7 µM (inactive) with OVCAR-3; 16.8 µM (inactive) with SF-268; 24.2 µM (inactive) in the assay with SNB-19; 23.2 µM (inactive) in the assay on NCI-H226; 20.9 µM (inactive) with HL-60. For the same compound, the GI50 in the assay on HOP-62 is 17.5 µM (inactive); with BT-549 it was 14.5 µM (inactive); with SK-MEL-28, 30.5 µM (inactive); in the assay with CAKI-1, 23.8 µM (inactive); in the assay on RXF 393 it was 15.8 µM (inactive); in the assay on NCI-H23 it was 21.6 µM (inactive). Besides, the GI50 with SK-OV-3 was 18.1 µM (inactive); in the assay with UO-31, 21.4 µM (inactive); with RPMI-8226 it was 12.2 µM (inactive); in the assay on LOX IMVI, 30.5 µM (inactive); in the assay with T47D it was 24.5 µM (inactive); with DU-145, 39.8 µM (inactive).

Turning to `O=C1C(Cl)=C(NCCCN2CCOCC2)C(=O)c2c(O)ccc(O)c21`, the GI50 in the assay on TK-10 was 6.28 µM (inactive); in the assay with OVCAR-3, 1.61 µM (inactive); with SF-268, 2.84 µM (inactive); in the assay with SNB-19, 1.66 µM (inactive); in the assay on NCI-H226, 3.54 µM (inactive); in the assay on HOP-62, 1.96 µM (inactive). The GI50 with BT-549 is 1.64 µM (inactive); in the assay on SK-MEL-28, 1.77 µM (inactive); in the assay with RXF 393 it was 1.75 µM (inactive); in the assay with NCI-H23, 1.75 µM (inactive); in the assay with SK-OV-3 it was 7.89 µM (inactive); in the assay with UO-31 it was 1.64 µM (inactive). For the same compound, the GI50 is 0.0598 µM (active) in the assay on RPMI-8226; 1.8 µM (inactive) in the assay with LOX IMVI; 4.89 µM (inactive) in the assay with T47D; 1.6 µM (inactive) in the assay on DU-145; 1.1 µM (active) in the assay with SK-MEL-5.

Take `N/C(=N\O)NCCN1CCCCCCC1`: the GI50 with TK-10, in the assay with OVCAR-3, in the assay with SF-268, in the assay with SNB-19, in the assay with NCI-H226 and with HL-60 was > 100 µM (inactive) throughout. The GI50 in the assay with HOP-62, in the assay with SK-MEL-28, in the assay on CAKI-1, with RXF 393, in the assay on NCI-H23 and in the assay on SK-OV-3 was > 100 µM (inactive) throughout. For the same compound, the GI50 is > 100 µM (inactive) with UO-31; > 100 µM (inactive) with NCI/ADR-RES; > 100 µM (inactive) in the assay with RPMI-8226; > 100 µM (inactive) in the assay on LOX IMVI; 80.9 µM (inactive) with T47D; > 100 µM (inactive) in the assay on DU-145. In the assay with SK-MEL-5, the GI50 was > 100 µM (inactive).

Take `C1CCCCC2(CCCCCCCCC3(CCC1)SCCS3)SCCS2`: the GI50 in the assay with TK-10, in the assay with OVCAR-3, in the assay with SF-268, in the assay with SNB-19, in the assay on NCI-H226 and in the assay with HL-60 was > 100 µM (inactive) in each case. Besides, the GI50 with HOP-62, in the assay on SK-MEL-28, with CAKI-1, in the assay with NCI-H23, in the assay on SK-OV-3 and with NCI/ADR-RES was > 100 µM (inactive) each time. The GI50 in the assay on LOX IMVI, with T47D, in the assay on DU-145 and with SK-MEL-5 was > 100 µM (inactive) in each case.

On to `CC(=O)[C@]12OC(=O)C3=C1[C@H](CC[C@@H]3C)[C@@H](C)C[C@H]2C=C(C)C`, for which the GI50 with OVCAR-3 was 7.31 µM (inactive); in the assay with SF-268, 8.47 µM (inactive); in the assay with SNB-19, 8.09 µM (inactive); in the assay with NCI-H226, 8.28 µM (inactive); in the assay with HL-60, 7.71 µM (inactive); in the assay on HOP-62 it was 8.61 µM (inactive). Moreover, the GI50 is 6.49 µM (inactive) in the assay on CAKI-1; 9.14 µM (inactive) in the assay on NCI-H23; 11 µM (inactive) in the assay with SK-OV-3; 8.22 µM (inactive) with UO-31; 9.12 µM (inactive) in the assay with NCI/ADR-RES; 7.26 µM (inactive) with RPMI-8226. The GI50 with LOX IMVI was 7.93 µM (inactive); in the assay on T47D it was 6.44 µM (inactive); with DU-145, 8.09 µM (inactive); with SK-MEL-5, 5.52 µM (inactive).

Take `COC(=O)[C@]1(c2cc3ccccc3n2S(=O)(=O)c2ccccc2)CC2CN(C(=O)OCc3ccccc3)C1C1OC(C)(C)OC21` (stereo partly specified): the GI50 in the assay on TK-10 is > 100 µM (inactive); in the assay on OVCAR-3, > 100 µM (inactive); in the assay with NCI-H226 it was 93.1 µM (inactive); with HL-60 it was > 100 µM (inactive); with HOP-62, > 100 µM (inactive); in the assay with BT-549, > 100 µM (inactive). Besides, the GI50 was 1.26 µM (inactive) in the assay on SK-MEL-28; > 100 µM (inactive) with CAKI-1; > 100 µM (inactive) in the assay on RXF 393; > 100 µM (inactive) in the assay on NCI-H23; > 100 µM (inactive) in the assay on SK-OV-3; > 100 µM (inactive) with UO-31. The GI50 in the assay with NCI/ADR-RES is > 100 µM (inactive); with RPMI-8226, 60.1 µM (inactive); with LOX IMVI it was > 100 µM (inactive); with DU-145, > 100 µM (inactive); in the assay on SK-MEL-5 it was > 100 µM (inactive).

(Values after ChEMBL document CHEMBL1201862, “PubChem BioAssay data set” (2004).)
